Among the test systems are IGROV1 ovarian; SF-268 CNS; MCF7 breast; LOX IMVI melanoma; HOP-92 NSCLC; HOP-62 NSCLC; M14 melanoma; SF-295 CNS; MALME-3M melanoma; OVCAR-4 ovarian.
What all share (experiment): inhibition of tumour cell growth, NCI panel, 48 h

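A five-concentration, 48-hour dose response in 96-well plates underlies each endpoint, interpolated linearly between surrounding concentrations. At the GI50, growth is halved. The concentration for full growth arrest is given as TGI.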 Some results are limits rather than exact numbers.

In the case of `COC12c3ccccc3-c3ccccc3C1[C@@H](C(=O)O)[C@H]2C(=O)O` (some centres undefined), the TGI with IGROV1 ovarian, with SF-268 CNS, in the assay on MCF7 breast, in the assay on LOX IMVI melanoma, in the assay with HOP-92 NSCLC and in the assay on HOP-62 NSCLC was more than 10 µM throughout. Further, the TGI in the assay with M14 melanoma, in the assay with SF-295 CNS, with MALME-3M melanoma and in the assay with OVCAR-4 ovarian was more than 10 µM each time.

Take `COc1cc(-c2cn(-c3ccc(Cl)cc3)c(=O)n2-c2ccccc2)cc(OC)c1OC`: the GI50 in the assay on IGROV1 ovarian is 30.6 µM; with SF-268 CNS, more than 68.9 µM; in the assay on MCF7 breast, more than 53.5 µM; in the assay with LOX IMVI melanoma, 46.2 µM; with HOP-92 NSCLC it was 24.1 µM; with HOP-62 NSCLC, more than 85.3 µM. Also, the GI50 was more than 100 µM with M14 melanoma, 55.7 µM with SF-295 CNS, more than 49.8 µM in the assay on MALME-3M melanoma and 21.4 µM in the assay with OVCAR-4 ovarian. For the same molecule, the TGI in the assay with IGROV1 ovarian is more than 69.2 µM; in the assay with SF-268 CNS it was more than 100 µM; in the assay on MCF7 breast, more than 100 µM; in the assay with LOX IMVI melanoma, more than 100 µM; with HOP-92 NSCLC it was more than 88.5 µM; with HOP-62 NSCLC, more than 100 µM. The TGI in the assay on M14 melanoma is more than 100 µM; in the assay on SF-295 CNS it was more than 100 µM; in the assay on MALME-3M melanoma it was more than 94.9 µM; in the assay on OVCAR-4 ovarian, more than 90.7 µM.

Consider `O=C(/C=C/c1cccnc1)/C=C/c1cccnc1`, for which the GI50 in the assay on IGROV1 ovarian was 0.463 µM; with SF-268 CNS, 2.73 µM; in the assay with MCF7 breast, 0.379 µM; with LOX IMVI melanoma it was 1.13 µM; in the assay on HOP-92 NSCLC it was 2.33 µM; with HOP-62 NSCLC it was 6.27 µM. In addition, the GI50 in the assay on M14 melanoma was 1.84 µM; with SF-295 CNS it was 3.73 µM; with MALME-3M melanoma, 1.97 µM; with OVCAR-4 ovarian, 2 µM. Besides, the TGI with IGROV1 ovarian amounted to 1.82 µM; in the assay with SF-268 CNS, 7.77 µM; with MCF7 breast, 1.84 µM; in the assay with LOX IMVI melanoma, 2.42 µM; in the assay with HOP-92 NSCLC, 5.89 µM; with HOP-62 NSCLC, 16.4 µM. Moreover, the TGI amounted to 4.62 µM in the assay with M14 melanoma, 13.1 µM in the assay with SF-295 CNS, 5.31 µM in the assay on MALME-3M melanoma and 4.52 µM with OVCAR-4 ovarian.

For the molecule `CCN=C(N)CSS(=O)(=O)O`, the TGI in the assay with IGROV1 ovarian, with SF-268 CNS, in the assay with MCF7 breast, in the assay with LOX IMVI melanoma, in the assay on HOP-92 NSCLC and in the assay on HOP-62 NSCLC was more than 100 µM throughout. Further, the TGI in the assay on M14 melanoma, in the assay on SF-295 CNS, with MALME-3M melanoma and with OVCAR-4 ovarian was more than 100 µM each time.

Turning to `O=C1/C(=C\c2ccccc2)CN(C(=O)c2ccccc2F)C/C1=C\c1ccccc1`, the GI50 in the assay with IGROV1 ovarian was 2.08 µM; in the assay on SF-268 CNS, 2.8 µM; in the assay on MCF7 breast, 0.449 µM; with LOX IMVI melanoma it was 0.746 µM; in the assay on HOP-92 NSCLC, 3.18 µM; in the assay with HOP-62 NSCLC, 2.53 µM. The GI50 in the assay on M14 melanoma was 2.51 µM; with SF-295 CNS, 2.24 µM; in the assay on MALME-3M melanoma it was 2.24 µM; in the assay on OVCAR-4 ovarian, 3.04 µM. In addition, the TGI is 4.46 µM with IGROV1 ovarian; 8.85 µM in the assay on SF-268 CNS; 2.07 µM with MCF7 breast; 2.17 µM in the assay on LOX IMVI melanoma; 14.2 µM in the assay on HOP-92 NSCLC; 6.57 µM in the assay on HOP-62 NSCLC. Moreover, the TGI in the assay with M14 melanoma was determined as 7.12 µM; in the assay with SF-295 CNS, 5.77 µM; with MALME-3M melanoma, 4.75 µM; in the assay on OVCAR-4 ovarian it was 11.2 µM.

For `COC(=O)Oc1nn(C(=O)OC)c(=O)c2ccccc12` (tested in a mixture with another compound), the TGI with IGROV1 ovarian, in the assay with SF-268 CNS, in the assay on MCF7 breast, in the assay on LOX IMVI melanoma, in the assay with HOP-62 NSCLC and in the assay on M14 melanoma was more than 100 µM each time. Also, the TGI with SF-295 CNS, in the assay on MALME-3M melanoma and in the assay with OVCAR-4 ovarian was more than 100 µM each time.

For the molecule `CCOC(=O)c1c(-c2ccccc2)[nH]c2ccccc2c1=O`, the TGI in the assay with IGROV1 ovarian, with SF-268 CNS, in the assay with MCF7 breast, in the assay on HOP-92 NSCLC, in the assay on HOP-62 NSCLC and in the assay on M14 melanoma was more than 100 µM in each case. Also, the TGI in the assay with SF-295 CNS, in the assay with MALME-3M melanoma and in the assay with OVCAR-4 ovarian was more than 100 µM in each case.

Regarding `Cn1cc(-c2nonc2-c2cn(C)c3ccc(Br)cc23)c2ccccc21`, the GI50 in the assay on IGROV1 ovarian was 5.13 µM; with SF-268 CNS, 5.79 µM; in the assay with MCF7 breast, 2.83 µM; with HOP-92 NSCLC it was 5.16 µM; in the assay on HOP-62 NSCLC, 5.51 µM; with M14 melanoma, 3.93 µM. The GI50 with SF-295 CNS is 2.89 µM; with MALME-3M melanoma, 4.86 µM; with OVCAR-4 ovarian, 5.95 µM. Further, the TGI in the assay with IGROV1 ovarian, in the assay with SF-268 CNS, in the assay on MCF7 breast, in the assay on HOP-92 NSCLC, with HOP-62 NSCLC and in the assay with M14 melanoma was more than 100 µM throughout. Also, the TGI in the assay on SF-295 CNS, in the assay on MALME-3M melanoma and in the assay with OVCAR-4 ovarian was more than 100 µM throughout.

As for `c1ccc2c(c1)SCCCSCCCS2`, the TGI in the assay with IGROV1 ovarian, with SF-268 CNS, in the assay on MCF7 breast, with LOX IMVI melanoma, in the assay on HOP-92 NSCLC and in the assay with HOP-62 NSCLC was more than 100 µM throughout. The TGI in the assay on M14 melanoma, in the assay with SF-295 CNS and in the assay on OVCAR-4 ovarian was more than 100 µM each time.

For the molecule `O=C(Nc1ccc(Cl)cc1)C(=O)C1=C(O)c2ccccc2OC1`, the TGI with IGROV1 ovarian, in the assay with SF-268 CNS, in the assay with MCF7 breast, in the assay with LOX IMVI melanoma, in the assay on HOP-92 NSCLC and in the assay on M14 melanoma was more than 100 µM each time. In addition, the TGI with SF-295 CNS, in the assay with MALME-3M melanoma and in the assay on OVCAR-4 ovarian was more than 100 µM each time.
